Measurements from US20240002374A1, “5-MEMBERED HETEROARYLAMINOSULFONAMIDES FOR TREATING CONDITIONS MEDIATED BY DEFICIENT CFTR ACTIVITY” (Genzyme Corporation, priority 2019, published 2024).

Target: T1, CFTR (primary human bronchial epithelial cells from a ΔF508 homozygous CF donor, CF-HBE cells) (Homo sapiens, UniProt P13569, DEL508-508)
T1 construct: Primary human bronchial epithelial cells from a ΔF508 homozygous CF donor; host or cells: primary human bronchial epithelial cells (CF-HBE) from a ΔF508 homozygous CF donor
T1 sequence (P13569 with tags, fused parts or gaps DEL508-508): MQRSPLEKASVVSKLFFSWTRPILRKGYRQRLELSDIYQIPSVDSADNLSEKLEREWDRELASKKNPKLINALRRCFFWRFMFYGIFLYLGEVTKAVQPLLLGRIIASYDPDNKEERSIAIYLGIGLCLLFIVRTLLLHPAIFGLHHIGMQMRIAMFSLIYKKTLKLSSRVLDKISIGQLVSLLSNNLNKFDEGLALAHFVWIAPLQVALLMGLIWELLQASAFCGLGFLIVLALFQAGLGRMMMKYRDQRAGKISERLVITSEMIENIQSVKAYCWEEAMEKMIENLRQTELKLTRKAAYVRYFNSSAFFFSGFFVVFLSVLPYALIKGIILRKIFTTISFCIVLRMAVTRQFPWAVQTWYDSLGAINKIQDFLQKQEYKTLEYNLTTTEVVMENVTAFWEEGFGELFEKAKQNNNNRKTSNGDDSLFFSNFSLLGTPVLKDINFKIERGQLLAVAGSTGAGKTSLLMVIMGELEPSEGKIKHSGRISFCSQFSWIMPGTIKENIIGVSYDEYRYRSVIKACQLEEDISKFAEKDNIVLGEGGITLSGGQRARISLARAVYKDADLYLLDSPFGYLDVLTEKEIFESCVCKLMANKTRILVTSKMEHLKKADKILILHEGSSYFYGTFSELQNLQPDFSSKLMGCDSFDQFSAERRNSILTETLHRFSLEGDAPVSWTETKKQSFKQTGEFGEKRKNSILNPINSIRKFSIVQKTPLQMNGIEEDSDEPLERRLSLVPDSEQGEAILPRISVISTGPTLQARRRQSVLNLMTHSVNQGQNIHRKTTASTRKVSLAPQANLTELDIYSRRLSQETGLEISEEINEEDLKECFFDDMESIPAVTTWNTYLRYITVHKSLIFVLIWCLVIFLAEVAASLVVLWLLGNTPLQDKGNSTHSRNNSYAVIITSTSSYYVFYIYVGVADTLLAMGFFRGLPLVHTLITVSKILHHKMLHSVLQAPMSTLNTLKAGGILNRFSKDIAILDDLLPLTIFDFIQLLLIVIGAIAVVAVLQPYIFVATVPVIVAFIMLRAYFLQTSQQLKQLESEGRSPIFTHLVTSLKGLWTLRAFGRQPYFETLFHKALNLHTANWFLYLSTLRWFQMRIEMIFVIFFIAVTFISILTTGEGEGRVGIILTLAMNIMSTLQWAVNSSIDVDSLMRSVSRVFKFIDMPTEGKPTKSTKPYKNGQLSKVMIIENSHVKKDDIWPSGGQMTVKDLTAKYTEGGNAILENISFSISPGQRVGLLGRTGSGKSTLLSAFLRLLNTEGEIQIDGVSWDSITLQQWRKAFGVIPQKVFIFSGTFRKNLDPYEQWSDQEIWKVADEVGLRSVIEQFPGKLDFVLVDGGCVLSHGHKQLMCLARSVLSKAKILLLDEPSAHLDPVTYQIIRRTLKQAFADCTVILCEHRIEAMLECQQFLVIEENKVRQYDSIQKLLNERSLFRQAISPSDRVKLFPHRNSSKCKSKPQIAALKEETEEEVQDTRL
Assay: TECC24 recording of CFTR-mediated transepithelial chloride transport (TECC24 AUC fold over DMSO @ 3 μM)
Type: cell-based
Conditions: 3 uM test agent; CF-HBE cells (ΔF508 homozygous) incubated 48 h; ratio of test agent AUC of forskolin-stimulated IEQ to vehicle (DMSO) AUC
Protocol: Example 510: TECC24 AUC Fold Over DMSO @ 3 μM
The effects of a test agent on CFTR-mediated transepithelial chloride transport was measured using TECC24 recording analysis. Test agents were solubilized in DMSO. Solubilized test agents were mixed with incubation medium containing DMEM/F12, Ultroser G (2%; Crescent Chemical, catalog #67042), Hyclone Fetal Clone H (2%; GE Healthcare, catalog #SH30066.02), bovine brain extract (0.25%; Lonza, catalog #CC-4098), insulin (2.5 μg/mL), IL-13 (10 ng/mL), hydrocortisone (20 nM), transferrin (2.5 μg/mL), triiodothyronine (500 nM), ethanolamine (250 nM), epinephrine (1.5 μM), phosphoethanolamine (250 nM), and retinoic acid (10 nM). Primary human bronchial epithelial cells from a ΔF508 homozygous CF donor (CF-HBE cells; from University of North Carolina Cystic Fibrosis Tissue Procurement Center), grown on Transwell HTS 24-well cell culture inserts (Costar, catalog #3378), were exposed to test agents or controls dissolved in incubation medium. The CF-HBE cells were cultured at 36.5° C. for 48 h before TECC24 recordings were performed in the presence or absence of test agent, a positive control or vehicle (DMSO).
Following incubation, the transwell cell culture inserts containing the test agent or control-treated CF-HBE cells were loaded onto a TECC24 apparatus (TECC v7 or MTECC v2; EP Design) to record the transepithelial voltage (VT) and resistance (TEER) using 4 AgCl electrodes per well configured in current-clamp mode. The apical and basolateral bath solutions both contained (in mM) 140 NaCl, 5 KCl, 2 CaCl2), 1 MgCl2, 10 Hepes, and 10 glucose (adjusted to pH 7.4 with NaOH) […]. To inhibit basal Na+ absorption, the ENaC inhibitor benzamil (10 μM) was added to the bath. Then, the adenylate cyclase activator, forskolin (10 μM), was added to the bath to activate CFTR. The forskolin-stimulated Cl− transport was halted by addition of bumetanide (20 μM), an inhibitor of the basolateral chloride co-transporter NKCC1, to the bath to confirm that the detected signal was chloride dependent. VT and TEER recordings were digitally acquired at routine intervals using TECC or MTECC software (EP Design). VT and TEER were transformed into equivalent transepithelial Cl− current (IEQ), and the Area Under the Curve (AUC) of the IEQ time course between forskolin and bumetanide addition is generated using Excel (Microsoft). Efficacy is expressed as the ratio of the test agent AUC divided by vehicle AUC. EC50s based on AUC are generated using the non-linear regression log(agonist) vs. response function in Prism software (GraphPad) with Hill Slope fixed=1.
If a test agent increased the AUC of the forskolin-stimulated IEQ relative to vehicle in CF-HBE cells, and this increase was inhibited by bumetanide, then the test agent was considered a CFTR corrector.

Compound	TECC AUC vs. DMSO @ 3 uM
Cc1cccc(C)c1-c1nc(NS(=O)(=O)c2ccc(F)c(N)c2)sc1-c1cc(F)cc(OCCC(C)(C)C)c1 [Example 42, 3-Amino-N-(5-(3-(3,3-dimethylbutoxy)-5-fluorophenyl)-4-(2,6-dimethylphenyl)thiazol-2-yl)-4-fluorobenzenesulfonamide]	B (“B” refers to AUC 2-5)
Cc1nn(C)cc1S(=O)(=O)Nc1nc(-c2ccccc2C(C)C)c(-c2cccc([C@H]3CC[C@@H](OC(F)(F)F)C3)c2)s1 [Example 46A1, N-(4-(2-Isopropylphenyl)-5-(3-((1S,3R)-3-(trifluoromethoxy)cyclopentyl)phenyl)thiazol-2-yl)-1,3-dimethyl-1H-pyrazole-4-sulfonamide]	C (“C” refers to AUC < 2)
Cc1nn(C)cc1S(=O)(=O)Nc1nc(-c2ccccc2C(C)C)c(-c2cccc([C@H]3CC[C@H](OC(F)(F)F)C3)c2)s1 [Example 46A2, N-(4-(2-Isopropylphenyl)-5-(3-((1S,3S)-3-(trifluoromethoxy)cyclopentyl)phenyl)thiazol-2-yl)-1,3-dimethyl-1H-pyrazole-4-sulfonamide]	B (“B” refers to AUC 2-5)
Nc1cccc(S(=O)(=O)Nc2nc(-c3ccccc3C(F)(F)F)c(-c3cccc([C@@H]4CC[C@H](OC(F)(F)F)C4)c3)s2)c1F [Example 47B1, 3-Amino-2-fluoro-N-(5-(3-((1R,3S)-3-(trifluoromethoxy)cyclopentyl)phenyl)-4-(2-(trifluoromethyl)phenyl)thiazol-2-yl)benzenesulfonamide]	A (“A” refers to AUC > 5)
Nc1cccc(S(=O)(=O)Nc2nc(-c3ccccc3C(F)(F)F)c(-c3cccc([C@@H]4CC[C@@H](OC(F)(F)F)C4)c3)s2)c1F [Example 47B2, 3-Amino-2-fluoro-N-(5-(3-((1R,3R)-3-(trifluoromethoxy)cyclopentyl)phenyl)-4-(2-(trifluoromethyl)phenyl)thiazol-2-yl)benzenesulfonamide]	C (“C” refers to AUC < 2)
CC(C)c1ccccc1-c1nc(NS(=O)(=O)c2cccc(N)c2F)sc1-c1cccc([C@H]2CC[C@@H](OC(F)(F)F)C2)c1 [Example 48A1, 3-Amino-2-fluoro-N-(4-(2-isopropylphenyl)-5-(3-((1S,3R)-3-(trifluoromethoxy)cyclopentyl)phenyl)thiazol-2-yl)benzenesulfonamide]	A (“A” refers to AUC > 5)
CC(C)c1ccccc1-c1nc(NS(=O)(=O)c2cccc(N)c2F)sc1-c1cccc([C@H]2CC[C@H](OC(F)(F)F)C2)c1 [Example 48A2, 3-Amino-2-fluoro-N-(4-(2-isopropylphenyl)-5-(3-((1S,3S)-3-(trifluoromethoxy)cyclopentyl)phenyl)thiazol-2-yl)benzenesulfonamide]	A (“A” refers to AUC > 5)
CC(C)c1ccccc1-c1nc(NS(=O)(=O)c2cccc(N)c2F)sc1-c1cccc([C@@H]2CC[C@H](OC(F)(F)F)C2)c1 [Example 48B1, 3-Amino-2-fluoro-N-(4-(2-isopropylphenyl)-5-(3-((1R,3S)-3-(trifluoromethoxy)cyclopentyl)phenyl)thiazol-2-yl)benzenesulfonamide]	B (“B” refers to AUC 2-5)
CC(C)c1ccccc1-c1nc(NS(=O)(=O)c2cccc(N)c2F)sc1-c1cccc([C@@H]2CC[C@@H](OC(F)(F)F)C2)c1 [Example 48B2, 3-Amino-2-fluoro-N-(4-(2-isopropylphenyl)-5-(3-((1R,3R)-3-(trifluoromethoxy)cyclopentyl)phenyl)thiazol-2-yl)benzenesulfonamide]	B (“B” refers to AUC 2-5)
Cc1cccc(C)c1-c1nc(NS(=O)(=O)c2cccc(N(C)C)n2)sc1-c1cc(F)cc(OCCC(C)(C)C)c1 [Example 240, 6-(dimethylamino)-N-[5-[3-(3,3-dimethylbutoxy)-5-fluorophenyl]-4-(2,6-dimethylphenyl)-1,3-thiazol-2-yl]pyridine-2-sulfonamide]	A (“A” refers to AUC > 5)
Cc1cccc(C)c1-c1nc(NS(=O)(=O)c2cccc(S(C)(=O)=O)c2)sc1-c1cc(F)cc(OCCC(C)(C)C)c1 [Example 242, N-[5-[3-(3,3-dimethylbutoxy)-5-fluorophenyl]-4-(2,6-dimethylphenyl)-1,3-thiazol-2-yl]-3-methylsulfonylbenzenesulfonamide]	A (“A” refers to AUC > 5)
Cc1cccc(C)c1-c1nc(NS(=O)(=O)c2cccc([S+](C)[O-])c2)sc1-c1cc(F)cc(OCCC(C)(C)C)c1 (stereo not drawn) [Example 259, N-[5-[3-(3,3-dimethylbutoxy)-5-fluorophenyl]-4-(2,6-dimethylphenyl)-1,3-thiazol-2-yl]-3-methylsulfinylbenzenesulfonamide]	B (“B” refers to AUC 2-5)
Cc1cccc(C(F)(F)F)c1-c1nc(NS(=O)(=O)c2cccc(N)n2)sc1-c1cc(F)cc(OCCC(C)(C)C)c1 [Example 312, 6-amino-N-[5-[3-(3,3-dimethylbutoxy)-5-fluorophenyl]-4-[2-methyl-6-(trifluoromethyl)phenyl]-1,3-thiazol-2-yl]pyridine-2-sulfonamide]	A (“A” refers to AUC > 5)
Cc1cccc(OC(C)C)c1-c1nc(NS(=O)(=O)c2cccc(N(C)C)n2)sc1-c1cccc(OCCC(C)(C)C)c1 [Example 329, 6-(dimethylamino)-N-[5-[3-(3,3-dimethylbutoxy)phenyl]-4-(2-methyl-6-propan-2-yloxyphenyl)-1,3-thiazol-2-yl]pyridine-2-sulfonamide]	A (“A” refers to AUC > 5)

Results, then the molecule that gave them:

TECC AUC vs. DMSO @ 3 uM	Compound
A (“A” refers to AUC > 5)	Cc1cccc(C)c1-c1nc(NS(=O)(=O)c2ccnc(N)c2)sc1N1CCOC(CCCC(C)(C)C)C1 (stereo not drawn) [Example 37, 2-Amino-N-(5-(2-(4,4-dimethylpentyl)morpholino)-4-(2,6-dimethylphenyl)thiazol-2-yl)pyridine-4-sulfonamide]
A (“A” refers to AUC > 5)	Cc1cccc(C)c1-c1nc(NS(=O)(=O)c2cccc(N)c2F)sc1N1CCOC2(CCC(C)(C)C2)C1 (stereo not drawn) [Example 38, 3-Amino-N-(5-(2,2-dimethyl-6-oxa-9-azaspiro[4.5]decan-9-yl)-4-(2,6-dimethylphenyl)thiazol-2-yl)-2-fluorobenzenesulfonamide]
B (“B” refers to AUC 2-5)	CC(C)c1ccccc1-c1nc(NS(=O)(=O)c2cccc(N)c2F)sc1N1CCOC2(CCC(C)(C)C2)C1 (stereo not drawn) [Example 39, 3-Amino-N-(5-(2,2-dimethyl-6-oxa-9-azaspiro[4.5]decan-9-yl)-4-(2-isopropylphenyl)thiazol-2-yl)-2-fluorobenzenesulfonamide]
A (“A” refers to AUC > 5)	CC(C)(C)CCCOc1ccn(-c2sc(NS(=O)(=O)c3ccccc3)nc2-c2ccccc2C(F)(F)F)n1 [Example 40, N-(5-(3-((4,4-Dimethylpentyl)oxy)-1H-pyrazol-1-yl)-4-(2-(trifluoromethyl)phenyl)thiazol-2-yl)benzenesulfonamide]
A (“A” refers to AUC > 5)	Cc1cccc(C)c1-c1nc(NS(=O)(=O)c2ccsc2)sc1-c1cccc(OCC(C)(C)C)c1 [Example 41, N-(4-(2,6-Dimethylphenyl)-5-(3-(neopentyloxy)phenyl)thiazol-2-yl)thiophene-3-sulfonamide]
A (“A” refers to AUC > 5)	Cc1nn(C)cc1S(=O)(=O)Nc1nc(-c2ccccc2C(C)C)c(-c2cccc([C@@H]3CC[C@H](OC(F)(F)F)C3)c2)s1 [Example 46B1, N-(4-(2-Isopropylphenyl)-5-(3-((1R,3S)-3-(trifluoromethoxy)cyclopentyl)phenyl)thiazol-2-yl)-1,3-dimethyl-1H-pyrazole-4-sulfonamide]
C (“C” refers to AUC < 2)	Cc1nn(C)cc1S(=O)(=O)Nc1nc(-c2ccccc2C(C)C)c(-c2cccc([C@@H]3CC[C@@H](OC(F)(F)F)C3)c2)s1 [Example 46B2, N-(4-(2-Isopropylphenyl)-5-(3-((1R,3R)-3-(trifluoromethoxy)cyclopentyl)phenyl)thiazol-2-yl)-1,3-dimethyl-1H-pyrazole-4-sulfonamide]
